# Reference: article PMC8067754, “Active Transport of Hepatotoxic Pyrrolizidine Alkaloids in HepaRG Cells” (International Journal of Molecular Sciences, 2021)
# Legend:
# [1] = system: HepaRG cells; test: PA and PANO content in cell culture medium of HepaRG cells upon pharmacological transporter inhibition (LC-MS/MS); type: in vitro ADME, human; conditions: HepaRG, 2.5 µM PA, 4, 8, 24 h; CsA 10 µM, Ko143 5 µM, MK-571 50 µM, Qu 100 µM, TEA 3 mM
# Description: (§1) In the case of TEA, cells were pre-incubated 24 h prior to PA treatment. The inhibitors were applied anew at PA incubation.
# In order to measure time-dependent depletion of PA and PANO content in cell culture medium, cells were seeded at a density of 0.2 × 10^6 cells per well in a 6-well plate and cultivated as described in Section 4.2. After four weeks of cultivation, cells were adapted to serum-free medium and medium substituted with insulin, transferrin, selenium (ITS) serum extender (Capricorn Scientific, Ebsdorfergrund, Germany) 48 h prior to PA incubation for optimal LC-MS/MS measurements. […] Samples were taken after 2 h, 4 h, 8 h and 24 h.
# Briefly, chromatographic separation of PA/PANO analytes was achieved on a 50 × 2.1 mm Kinetex ™ 2.6 μm CoreShell EVO C18 100 Å column protected by a SecurityGuard ™ ULTRA EVO C 18 2.1 mm guard column (both Phenomenex, Aschaffenburg, Germany) at a flow rate of 0.4 mL/min on a Shimadzu high performance liquid chromatography (HPLC) apparatus (LC-20AB, SIL-20AC HT, CTO-20AC, CBM-20A, Duisburg, Germany) coupled to an API4000 triple quadrupole MS (Sciex, Darmstadt, Germany). The following MS parameters were used for measurements in positive electrospray ionisation (ESI+) mode: ionisation voltage 2500 V, nebuliser gas 50 psi, heating gas 50 psi, curtain gas 30 psi, temperature 600 °C, collision gas level 7. The substance specific parameters are summarized in Kaltner et al. 2019 [79].
# [2] = system: HepaRG cells; test: Cell viability (MTT assay) of HepaRG cells with and without transporter inhibitors; type: cell-based, human; conditions: HepaRG
# Description: as §1
# To analyze the cytotoxic effects of PAs on HepaRG cells with non-inhibited and inhibited hepatic transporters, the cells were seeded at a density of 9000 cells per well in the inner 60 wells of a 96-well plate and cultivated as described in Section 4.2. After four weeks of cultivation, FBS concentration in the cell culture medium was reduced to 2% for 48 h prior incubation. Thereby, inhibitory effects of peptide growth factors from the FBS on xenobiotic-metabolizing enzymes were minimized. […] The cells were pre-incubated with pharmacological inhibitors as described in Section 4.3. […] Cell viability was analyzed via the MTT test. 10 µl MTT reagent (5 mg/mL MTT dissolved in phosphate-buffered saline, PBS) was added per well and incubated for 1 h at 37 °C. The supernatant was discarded, and the violet formazan crystals dissolved in 130 µL desorption solution (0.7% sodium dodecyl sulfate in propan-2-ol). After shaking for 20 min (under protection from light), absorbance was measured on a TecanM200Pro spectrometer (Tecan Group Ltd., Männedorf, Switzerland) at a wavelength of 570 nm, along with a reference wavelength of 630 nm.
structure (smiles),measurement,setting,value
"COc1ccc2c3c([nH]c2c1)[C@H](CC(C)C)N1C(=O)[C@H](CCC(=O)OC(C)(C)C)NC(=O)[C@@H]1C3 [Ko143, reference compound]",effect of inhibitor on retrorsine and senecionine uptake and PANO formation,[1],did not alter retrorsine and senecionine uptake and PANO formation
same,effect of inhibitor on PA-mediated cytotoxicity,"[2]; 250 µM retrorsine or senecionine, MTT, 24 h, versus 250 µM PA only",did not alter the cytotoxic effects of retrorsine and senecionine
same,"Cell viability (MTT), percent of solvent control, Mean [%]","[2]; no PA, inhibitor alone 24 h: CsA 10 µM, Ko143 5 µM, MK571 50 µM, Qu 100 µM, TEA 3 mM",98.3595%
